# Where two headings read alike, the source gives them in different places.
# What was measured:
# JAK1 = target: T1, JAK1 (Homo sapiens, UniProt P23458); test: Biochemical JAK1 kinase assay (LanthaScreen); settings: for Ki: read-out: JAK 1 (pKi) (converted)
# T1 construct: GST; purchased Life Technologies
# In short: (§1)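 TR-FRET readout (520/495 nm) using Tb-labelled pTyr701 antibody after EDTA stop, following 1 h ATP-started phosphorylation of GFP-STAT1 by recombinant GST-JAK. Compounds preincubated 1 h with enzyme and substrate; pIC50 from 4-parameter fit, Cheng-Prusoff gives pKi.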
# JAK3 = target: T2, JAK3 (Homo sapiens, UniProt P52333); test: Biochemical JAK3 kinase assay (LanthaScreen); parameters: GST; purchased Life Technologies; settings: for Ki: read-out: JAK 3 (pKi) (converted)
# T2 sequence (P52333 1-1124): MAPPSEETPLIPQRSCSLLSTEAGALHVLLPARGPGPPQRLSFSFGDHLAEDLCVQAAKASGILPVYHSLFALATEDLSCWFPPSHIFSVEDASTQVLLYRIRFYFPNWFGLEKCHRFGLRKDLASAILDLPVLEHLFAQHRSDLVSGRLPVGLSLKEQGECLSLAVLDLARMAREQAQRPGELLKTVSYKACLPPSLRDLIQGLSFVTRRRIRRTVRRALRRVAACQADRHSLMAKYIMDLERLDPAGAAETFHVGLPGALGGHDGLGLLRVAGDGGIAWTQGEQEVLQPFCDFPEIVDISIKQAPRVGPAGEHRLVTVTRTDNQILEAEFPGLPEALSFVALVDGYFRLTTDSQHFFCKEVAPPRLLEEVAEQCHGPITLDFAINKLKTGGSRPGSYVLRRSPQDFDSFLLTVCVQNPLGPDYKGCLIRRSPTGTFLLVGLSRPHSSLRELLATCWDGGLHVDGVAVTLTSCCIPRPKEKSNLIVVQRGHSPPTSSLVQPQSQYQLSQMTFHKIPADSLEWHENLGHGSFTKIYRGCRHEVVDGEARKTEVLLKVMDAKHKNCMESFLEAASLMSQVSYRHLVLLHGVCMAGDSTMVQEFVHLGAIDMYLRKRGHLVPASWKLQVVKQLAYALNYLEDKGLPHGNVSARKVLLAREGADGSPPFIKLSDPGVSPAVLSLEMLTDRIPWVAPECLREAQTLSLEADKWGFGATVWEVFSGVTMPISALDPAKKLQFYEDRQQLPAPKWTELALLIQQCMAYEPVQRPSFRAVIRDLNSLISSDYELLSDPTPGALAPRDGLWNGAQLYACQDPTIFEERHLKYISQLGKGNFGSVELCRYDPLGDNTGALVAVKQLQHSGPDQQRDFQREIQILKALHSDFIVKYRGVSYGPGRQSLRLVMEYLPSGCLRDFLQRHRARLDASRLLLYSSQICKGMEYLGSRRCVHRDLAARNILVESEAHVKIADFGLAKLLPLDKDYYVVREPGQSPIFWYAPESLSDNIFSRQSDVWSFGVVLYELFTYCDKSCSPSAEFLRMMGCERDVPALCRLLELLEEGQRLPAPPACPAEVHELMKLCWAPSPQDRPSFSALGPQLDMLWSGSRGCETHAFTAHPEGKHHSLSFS
# In short: as §1
# [1] = system: IL-2 stimulated pSTAT5 in Tall-1 T cells; test: Cellular JAK3 potency assay: inhibition of IL-2 stimulated pSTAT5 in Tall-1 T cells; type: cell-based, human; settings: for IC50: Homo sapiens, read-out: Tall-1 (pIC50) (converted)
# In short: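 In human Tall-1 T cells, IL-2 (300 ng/ml final, 30 min) drives STAT5 phosphorylation after a 1 h compound pretreatment. Lysates are assayed for pSTAT5 by AlphaLisa, and IC50 derived from signal versus concentration is expressed as pIC50.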
# JAK2 = target: T3, JAK2 (Homo sapiens, UniProt O60674); test: Biochemical JAK2 kinase assay (LanthaScreen); settings: for Ki: read-out: JAK 2 (pKi) (converted)
# T3 construct: GST; purchased Life Technologies
# T3 sequence (O60674 whole entry): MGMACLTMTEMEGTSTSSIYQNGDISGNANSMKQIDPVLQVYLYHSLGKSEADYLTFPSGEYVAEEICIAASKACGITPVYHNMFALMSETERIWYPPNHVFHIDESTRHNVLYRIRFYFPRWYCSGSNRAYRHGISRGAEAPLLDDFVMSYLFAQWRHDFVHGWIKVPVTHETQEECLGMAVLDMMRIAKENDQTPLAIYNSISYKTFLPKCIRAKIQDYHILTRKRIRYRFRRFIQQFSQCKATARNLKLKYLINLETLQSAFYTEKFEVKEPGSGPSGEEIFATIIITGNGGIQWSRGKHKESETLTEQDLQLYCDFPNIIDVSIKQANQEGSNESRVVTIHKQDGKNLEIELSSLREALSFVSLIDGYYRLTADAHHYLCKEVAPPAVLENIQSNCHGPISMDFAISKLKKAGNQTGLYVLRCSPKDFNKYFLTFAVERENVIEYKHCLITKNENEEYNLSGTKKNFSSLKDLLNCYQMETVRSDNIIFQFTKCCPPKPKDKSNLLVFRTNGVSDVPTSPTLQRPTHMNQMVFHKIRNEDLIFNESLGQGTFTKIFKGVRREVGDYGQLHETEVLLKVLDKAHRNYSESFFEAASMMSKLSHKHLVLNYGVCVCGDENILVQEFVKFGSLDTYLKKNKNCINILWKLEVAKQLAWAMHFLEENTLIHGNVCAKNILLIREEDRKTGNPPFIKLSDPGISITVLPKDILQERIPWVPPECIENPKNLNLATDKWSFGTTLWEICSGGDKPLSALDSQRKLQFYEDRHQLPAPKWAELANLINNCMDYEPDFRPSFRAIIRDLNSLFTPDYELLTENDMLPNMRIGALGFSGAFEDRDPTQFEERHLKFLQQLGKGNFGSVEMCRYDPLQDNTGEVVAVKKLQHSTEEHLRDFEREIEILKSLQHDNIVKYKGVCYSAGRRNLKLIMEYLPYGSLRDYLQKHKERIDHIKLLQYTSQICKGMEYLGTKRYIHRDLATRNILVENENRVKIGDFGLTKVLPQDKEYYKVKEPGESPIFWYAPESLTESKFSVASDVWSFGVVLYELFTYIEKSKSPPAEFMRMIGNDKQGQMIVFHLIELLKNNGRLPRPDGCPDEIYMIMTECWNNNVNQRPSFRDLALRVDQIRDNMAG
# In short: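 GST-tagged recombinant JAK2 pre-incubated 1 h at ambient temperature with compound and GFP-STAT1 peptide in HEPES pH 7.5/MgCl2 buffer, then ATP added for a 1 h reaction with 1% DMSO. TR-FRET read after EDTA and Tb-anti-pSTAT1 (pTyr701) addition; IC50 from 4-parameter fit, converted to pKi by Cheng-Prusoff.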
# Tyk2 = target: T4, Tyk2 (Homo sapiens, UniProt P29597); test: Biochemical Tyk2 kinase assay (LanthaScreen); settings: for Ki: read-out: Tyk 2 (pKi) (converted)
# T4 construct: GST; purchased Life Technologies
# T4 sequence (P29597 whole entry): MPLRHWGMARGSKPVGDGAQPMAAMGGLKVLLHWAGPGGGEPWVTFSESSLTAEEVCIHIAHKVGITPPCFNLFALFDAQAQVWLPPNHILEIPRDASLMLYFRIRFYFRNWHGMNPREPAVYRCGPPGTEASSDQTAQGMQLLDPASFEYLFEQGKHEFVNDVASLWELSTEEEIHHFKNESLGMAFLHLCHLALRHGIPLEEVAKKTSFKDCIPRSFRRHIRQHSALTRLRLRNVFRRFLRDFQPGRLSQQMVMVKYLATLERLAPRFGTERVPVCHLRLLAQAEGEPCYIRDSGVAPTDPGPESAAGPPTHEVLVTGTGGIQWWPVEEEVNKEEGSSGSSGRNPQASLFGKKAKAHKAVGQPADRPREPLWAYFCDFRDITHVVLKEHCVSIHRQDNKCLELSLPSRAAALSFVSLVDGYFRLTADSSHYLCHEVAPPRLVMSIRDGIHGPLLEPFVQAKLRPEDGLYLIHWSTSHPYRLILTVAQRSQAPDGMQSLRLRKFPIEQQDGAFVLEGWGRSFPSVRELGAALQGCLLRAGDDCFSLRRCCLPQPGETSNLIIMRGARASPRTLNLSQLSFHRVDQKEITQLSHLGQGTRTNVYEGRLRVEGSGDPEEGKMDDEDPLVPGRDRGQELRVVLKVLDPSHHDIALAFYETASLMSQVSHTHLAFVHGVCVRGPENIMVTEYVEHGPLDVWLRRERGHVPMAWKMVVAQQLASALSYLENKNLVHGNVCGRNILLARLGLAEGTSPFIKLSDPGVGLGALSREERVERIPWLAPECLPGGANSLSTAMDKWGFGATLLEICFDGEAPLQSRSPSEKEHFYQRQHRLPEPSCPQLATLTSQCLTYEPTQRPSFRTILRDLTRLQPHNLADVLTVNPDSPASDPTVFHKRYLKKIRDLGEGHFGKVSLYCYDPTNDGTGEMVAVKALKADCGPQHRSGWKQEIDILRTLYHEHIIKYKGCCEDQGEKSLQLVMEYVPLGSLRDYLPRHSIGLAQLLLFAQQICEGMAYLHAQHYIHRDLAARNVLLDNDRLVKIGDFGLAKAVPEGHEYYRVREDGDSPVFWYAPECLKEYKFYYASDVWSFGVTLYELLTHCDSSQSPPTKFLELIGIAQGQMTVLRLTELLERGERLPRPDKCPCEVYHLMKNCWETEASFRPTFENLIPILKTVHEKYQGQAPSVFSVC
# In short: as §1
# [2] = selectivity: difference of pKi JAK3 and pKi JAK1
# [3] = IL-2 stimulated pSTAT5 in Tall-1 T cells
# [4] = TALL-1, IL-2 stimulated pSTAT5 in Tall-1 T cells
# [5] = selectivity JAK3 over JAK1, difference of pKi
# [6] = IL-2 stimulated pSTAT5, Tall-1 T cells
# [7] = TALL-1, IL-2 stimulated pSTAT5, Tall-1 T cells
# T1 sequence (P23458 whole entry): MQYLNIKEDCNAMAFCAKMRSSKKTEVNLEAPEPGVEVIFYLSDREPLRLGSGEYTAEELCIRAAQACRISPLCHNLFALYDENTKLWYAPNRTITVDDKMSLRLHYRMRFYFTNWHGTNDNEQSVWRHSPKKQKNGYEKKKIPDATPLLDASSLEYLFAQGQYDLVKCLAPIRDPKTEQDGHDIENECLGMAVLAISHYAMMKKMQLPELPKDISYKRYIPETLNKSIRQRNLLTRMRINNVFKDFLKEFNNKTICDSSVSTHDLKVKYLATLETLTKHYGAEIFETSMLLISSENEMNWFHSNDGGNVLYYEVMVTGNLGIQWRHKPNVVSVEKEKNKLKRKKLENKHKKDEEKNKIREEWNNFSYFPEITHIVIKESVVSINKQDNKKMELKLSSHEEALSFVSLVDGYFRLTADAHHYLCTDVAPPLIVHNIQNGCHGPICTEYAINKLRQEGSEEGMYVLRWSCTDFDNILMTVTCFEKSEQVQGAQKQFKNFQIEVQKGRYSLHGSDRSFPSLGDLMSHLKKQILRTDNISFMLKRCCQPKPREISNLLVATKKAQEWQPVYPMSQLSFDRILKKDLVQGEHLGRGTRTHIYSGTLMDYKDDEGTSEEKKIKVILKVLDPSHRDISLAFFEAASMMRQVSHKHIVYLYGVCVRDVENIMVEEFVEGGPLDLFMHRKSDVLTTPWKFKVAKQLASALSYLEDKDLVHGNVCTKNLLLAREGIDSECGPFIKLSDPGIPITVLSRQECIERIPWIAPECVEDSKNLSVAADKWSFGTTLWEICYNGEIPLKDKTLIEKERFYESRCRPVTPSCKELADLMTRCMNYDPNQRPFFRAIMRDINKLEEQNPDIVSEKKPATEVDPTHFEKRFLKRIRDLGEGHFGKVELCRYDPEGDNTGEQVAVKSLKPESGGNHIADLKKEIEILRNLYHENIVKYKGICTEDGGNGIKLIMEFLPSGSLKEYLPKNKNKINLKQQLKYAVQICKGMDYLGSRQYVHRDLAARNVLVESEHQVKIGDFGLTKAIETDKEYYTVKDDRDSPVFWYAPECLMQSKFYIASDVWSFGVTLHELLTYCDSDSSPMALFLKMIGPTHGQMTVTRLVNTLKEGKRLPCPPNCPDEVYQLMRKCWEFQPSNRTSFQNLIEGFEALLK
Compound,JAK 1 (pKi) (JAK1),JAK 3 (pKi) (JAK3),JAK3 (pKi)-JAK1 (pKi) (JAK3; [2]),"Tall-1 (pIC50) [1, 3]",JAK 2 (pKi) (JAK2),Tyk 2 (pKi) (Tyk2),Ki (JAK1),Ki (JAK3),"IC50 [1, 4]",Ki (JAK2),Ki (Tyk2),JAK3 (pKi)-JAK1 (pKi) (JAK3; [5]),"Tall-1 (pIC50) [1, 6]","IC50 [1, 7]"
CCC1(COc2nc(-c3ccc(O)cc3)cc3[nH]ncc23)CN(C(=O)/C=C/CN(C)C)C1 [Compound 3-61],E (a pKi value of 7 or below (Ki of 100 nM or above)),A (a pKi value≥10 (Ki≤0.1 nM)),A (a value of 3 or above),A (a pIC50 value≥7.5 (IC50≤32 nM)),D (a pKi value between 7 and 8 (Ki between 100 nM and 10 nM)),E (a pKi value of 7 or below (Ki of 100 nM or above)),,,,,,,,
C=CC(=O)N1CC(COc2nc(-c3ccc(O)c(Cl)c3)cc3[nH]ncc23)C1 [Compound 3-35],,,A (a value of 3 or above),,,,> 100 nM,0.1 to 1 nM,< 31.6 nM,> 100 nM,> 100 nM,,,
CC1C(COc2cc(-c3ccc(O)cc3)cc3[nH]ncc23)CN1C(=O)/C=C/CN(C)C (stereo not drawn) [Compound 3-30],E (a pKi value of 7 or below (Ki of 100 nM or above)),A (a pKi value≥10 (Ki≤0.1 nM)),A (a value of 3 or above),B (a pIC50 value between 6.7 (included) and 7.5 (IC50 between 200 nM and 32 nM)),D (a pKi value between 7 and 8 (Ki between 100 nM and 10 nM)),E (a pKi value of 7 or below (Ki of 100 nM or above)),,,,,,,,
C=CC(=O)N1CC(C#N)(COc2nc(-c3ccc(O)cc3)nc3[nH]ncc23)C1 [Compound 3-104],,,A (a value of 3 or above),,,,> 100 nM,< 0.1 nM,< 31.6 nM,> 100 nM,> 100 nM,,,
C=CC(=O)N1CCO[C@@H](C(=O)Nc2nc(-c3ccc(O)c(F)c3)cc3[nH]ncc23)C1 [Compound 13-21],E (a pKi value of 7 or below (Ki of 100 nM or above)),B (a pKi value between 9 and 10 (Ki between 1 nM and 0.1 nM)),,,D (a pKi value between 7 and 8 (Ki between 100 nM and 10 nM)),E (a pKi value of 7 or below (Ki of 100 nM or above)),,,,,,B (a value of 2.3 to 3),A (a pIC50 value≥7.5 (IC50≤32 nM)),
CN(C)C/C=C/C(=O)N1CC(S(=O)(=O)c2cc(-c3ccc(O)cc3)cc3[nH]ncc23)C1 [Compound 12-49],,,,,,,> 100 nM,0.1 to 1 nM,,> 100 nM,> 100 nM,A (a value of 3 or above),,200 to 1000 nM
C=CC(=O)N1CC[C@H](Oc2cc(-c3ccc(O)c(F)c3)nc3[nH]nc(C)c23)C1 [Compound 1-33],,,A (a value of 3 or above),,,,> 100 nM,0.1 to 1 nM,31.6 to 200 nM,> 100 nM,> 100 nM,,,
C=CC(=O)N1CCC(C)(Oc2cc(-c3ccc(O)cc3Cl)cc3[nH]ncc23)C1 (stereo not drawn) [Compound 13-14],E (a pKi value of 7 or below (Ki of 100 nM or above)),A (a pKi value≥10 (Ki≤0.1 nM)),,,D (a pKi value between 7 and 8 (Ki between 100 nM and 10 nM)),E (a pKi value of 7 or below (Ki of 100 nM or above)),,,,,,A (a value of 3 or above),A (a pIC50 value≥7.5 (IC50≤32 nM)),
C=CC(=O)N1CCSC(C(=O)Nc2cc(-c3ccc(O)cc3)cc3[nH]ncc23)C1 (stereo not drawn) [Compound 12-42],,,,,,,> 100 nM,0.1 to 1 nM,,10 to 100 nM,> 100 nM,B (a value of 2.3 to 3),,31.6 to 200 nM

# — US10392368B2, “Pyrazolo and triazolo bicyclic compounds as JAK kinase inhibitors” (THERAVANCE BIOPHARMA R&D IP, LLC, priority 2017, dated 2019)
